Data set [1] can be described thus: Pharmacokinetic determination in mice (plasma). It counts as in vivo, C57BL/6J mice. Particulars: C57 mice, PO administration, 5 mpk; for AUC(0-inf) / half-life / MRT / Cmax: male, C57BL/6J, mouse, 5 mg/kg; for AUC(0-inf): read-out: Area under the curve AUC0-∞; for half-life: read-out: Half-life t1/2 (converted); for MRT: read-out: Mean residence time MRT; for Cmax: read-out: Plasma concentration Cmax. In short, it runs like this:
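Male C57BL/6J mice (n=3 per route), fasted overnight, got 5 mg/kg PO in 10% Solutol HS15 or 1 mg/kg IV in 5% DMSO/10% Solutol HS15/85% PBS. Orbital blood was sampled at 0.083 (IV only), 0.25, 0.5, 1, 2, 4, 8 and 24 h. EDTA-K2 plasma was quantified by LC-MS/MS for PK parameters.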

Data set [2] deals with PCSK9 secreted by HepG2 cells (Homo sapiens (Human), UniProt Q8NBP7). The data set can be described thus: Effect on the concentration of PCSK9 secreted by HepG2 cells (ELISA). Particulars: 48 hours incubation, read-out: Inhibitory activity on PCSK9, IC50. It counts as cell-based. On the technique in general: In an ELISA, binding on a coated surface is turned into a signal by an enzyme label.
Sequence of PCSK9 secreted by HepG2 cells (Q8NBP7 153-692): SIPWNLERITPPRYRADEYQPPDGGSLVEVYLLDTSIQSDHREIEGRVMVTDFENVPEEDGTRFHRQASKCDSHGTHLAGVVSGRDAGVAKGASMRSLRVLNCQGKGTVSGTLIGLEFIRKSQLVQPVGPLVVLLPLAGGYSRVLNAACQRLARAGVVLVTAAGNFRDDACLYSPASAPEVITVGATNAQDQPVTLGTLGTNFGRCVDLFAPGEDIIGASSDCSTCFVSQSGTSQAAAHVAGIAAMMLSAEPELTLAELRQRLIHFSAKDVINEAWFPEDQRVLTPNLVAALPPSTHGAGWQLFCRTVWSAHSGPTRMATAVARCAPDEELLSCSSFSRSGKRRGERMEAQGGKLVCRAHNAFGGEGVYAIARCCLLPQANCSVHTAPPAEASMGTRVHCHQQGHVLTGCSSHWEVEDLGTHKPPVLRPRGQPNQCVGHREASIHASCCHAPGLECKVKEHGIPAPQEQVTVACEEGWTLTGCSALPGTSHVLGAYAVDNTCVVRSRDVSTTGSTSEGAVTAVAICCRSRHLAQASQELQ
Sequence of PCSK9 secreted by HepG2 cells (Q8NBP7 31-152 partner): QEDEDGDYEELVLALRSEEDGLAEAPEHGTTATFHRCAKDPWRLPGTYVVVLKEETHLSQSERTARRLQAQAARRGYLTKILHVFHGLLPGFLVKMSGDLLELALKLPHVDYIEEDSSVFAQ

Data set [3] has as its system hyperlipidemia animal model of B6-hPCSK9 transgenic mice. The data set can be described thus: In vivo pharmacodynamics in hyperlipidemia animal model of B6-hPCSK9 transgenic mice. Also on record: species or system B6-hPCSK9 transgenic C57 mice. As to conditions: PO administration, Day 14, high-fat feed. Here is the method: The compounds of the present disclosure were evaluated for in vivo pharmacodynamics in a hyperlipidemia animal model of B6-hPCSK9 transgenic mice.
B6-hPCSK9 transgenic C57 mice, 6-8 weeks old, male, purchased from Jiangsu GemPharmatech Co., Ltd.
After delivery to a barrier system, the animals were given one week for acclimatization and began to feed on the high-fat feed. The body weight and feed weight were weighed once a week, and the body weight and food intake thereof were recorded.
a. The animals were grouped by a random grouping method.
c. According to the grouping results, administration with the test drug was started (mode of administration: oral administration; administration volume: 10 mL/kg; frequency of administration: once/day or single administration; administration cycle: 21 days; vehicle: 10% Solutol HS 15/90% Saline).
d. After the test drug was administered, the body weight and feed weight were weighed twice a week and blood was taken once a week.
e. The data was processed with software such as Excel. […] PCSK9 in plasma was detected by ELISA.

Data set [4] concerns the target PCSK9 protein (Homo sapiens (Human), UniProt Q8NBP7). Kind of data set: Binding experiment: surface plasmon resonance (SPR) binding to PCSK9 protein. The source says: • 1. Experimental objective: To detect the action of compounds to bind PCSK9 protein by a conventional surface plasmon resonance (SPR) method.
On the technique in general: In SPR one partner is held on a chip, and binding of the other changes the refractive index at the surface.

For data set [5], the system named is LDLR level in HepG2 cells. The data set can be described thus: Effect on the LDLR level in HepG2 cells (ELISA). Also on record: concentration or dose not given beside the values. It counts as cell-based, human. Particulars: 48 hours incubation, LDLR ELISA of lysate. The method, then:
To detect the effect of the compounds on the LDLR protein level.
Envision (PE-Cisbio: 2105-0020), centrifuge (Eppendorf: 5810R), water purifier (THERMO: Pacific T II+Micropure), plate washer (Thermo: […] VERSA), and microplate shaker (Thermo: 88882006)
• 1) HepG2 cell strain was cultured in the complete culture medium at 37° C., 5% CO2 to 70-90% confluence. • 2) The cells were digested and resuspended in the experimental culture medium, inoculation was performed at 25,000 cells/well/200 μL in a 96-well cell culture plate, and the cells were cultured at 37° C., 5% CO2 for 20-24 hours. • 3) The culture medium was removed from the cell culture plate, and the cell culture plate was washed once by adding 200 μl of the experimental culture medium to each well. • 4) Preparation of positive control compound and compound to be tested: the positive control compound and the compound to be tested were diluted on the compound plate. • 5) The diluted compound was added to the cell culture plate at 250 μL per well and incubated at 37° C. and 5% CO2 for 48 hours. • 6) The cell culture medium was removed, the cells were washed with PBS, and 50 μL of the cell lysis buffer and the protein inhibitor were added. • 7) After centrifugation, the lysate was removed and the sample was stored for later use. • 8) Preparation of standard curve: corresponding volumes of Dilution buffer were successively added to respective standard tubes, and the standard was diluted in series by taking the corresponding volume from the original tube or the last concentration tube. • 9) Preparation of washing liquid: 10× Wash buffer was diluted into 1× with Milli-Q for later use. • 10) According to the standard curve wells and sample wells set according to a plate map, 80 μL/well of the corresponding standards and samples were added to the wells, with 2 replicate wells. A well in which no standard was added was used as a background value well. A self-adhesive seal was applied, the plate was placed on a plate shaker at room temperature, gently shaken, uniformly mixed, and incubated for 2 hours. • 11) The plate was placed on the plate washer, the washing liquid was set to 350 μL per well, and the plate was washed 4 times repeatedly. • 12) 200 μL of Human LDLR conjugate was added, a self-adhesive seal was applied, and the plate was placed on the plate shaker, well mixed uniformly, and incubated for 2 hours. • 13) The plate was placed on the plate washer, the washing liquid was set to 350 μL per well, and the plate was washed 4 times repeatedly. • 14) 200 μL/well of Substrate solution was added, and the plate was placed in the dark, applied with a self-adhesive seal, placed on the plate shaker, well mixed uniformly, and incubated for 20 minutes. • 15) 50 μL/well of Stop solution was added and mixed uniformly over 20 min. • 16) The optical density (OD) value in each well was measured in sequence at a wavelength of 450 nm by the microplate reader.
After the OD values were read by the microplate reader, the OD value of the 0-concentration standard in the standard group was subtracted from the OD values of the standards, control group, and samples to obtain the actual OD values for these wells. A standard curve was plotted with Graphpad and the concentration of the sample was calculated. If the dilution was performed during the sample detection, the calculated sample concentration was necessarily multiplied by the corresponding dilution ratio in the final calculation, which was the actual concentration of the sample. Concentration increase %=(actual concentration in control-actual concentration in sample)/actual concentration in control*100.

Sequence of PCSK9 protein (Q8NBP7 153-692): as the sequence (Q8NBP7 153-692) above

`O=C1c2ncccc2CN1c1ccc(N[C@H]2CC[C@H](Nc3ncc(C(F)(F)F)cn3)C2)nc1` [Example 134, 6-(6-(((1S,3S)-3-((5-(trifluoromethyl)pyrimidin-2-yl)amino)cyclopentyl)amino)-3-yl)-5,6-dihydro-7H-pyrrolo[3,4-b]pyridin-7-one]: in data set [1], the Time to peak tmax stood at 2 h, the AUC(0-inf) was determined as 76600 ng·h/mL, the half-life is 4.1 h and the MRT was 5.8 h. The Cmax in data set [1] worked out at 9360 ng/mL. Also, the IC50 in data set [2] is 2.2 µM. Besides, the “LDL-C change, Day 14” value in data set [3] (5 mpk) was −60.65%.
`O=C1c2cccc(C(F)(F)F)c2CN1c1ccc(N[C@H]2CC[C@H](Nc3ncc(C(F)(F)F)nn3)C2)nc1` [Example 158, 4-(Trifluoromethyl)-2-(6-(((1S,3S)-3-((6-(trifluoromethyl)-1,2,4-triazin-3-yl)amino)cyclopentyl)amino)pyridin-3-yl) isoindolin-1-one]: in data set [1], the Time to peak tmax was determined as 4 h, the AUC(0-inf) was 22400 ng·h/mL, the half-life is 16.2 h and the MRT stood at 19.5 h. In data set [1], the Cmax came out at 2320 ng/mL. For the same compound, the IC50 in data set [2] came to 1.9 µM. Moreover, the “LDL-C change, Day 14” value in data set [3] (10 mpk) was −28.97%.
In turn, `O=C1c2cccnc2CN1c1ccc(N[C@H]2CC[C@H](Nc3ncc(OC(F)F)cn3)C2)nc1` [Example 77, 6-(6-(((1S,3S)-3-((5-(difluoromethoxy)pyrimidin-2-yl)amino)cyclopentyl)amino)pyridin-3-yl)-6,7-dihydro-5H-pyrrolo[3,4-b]pyridin-5-one] returned a Kd in data set [4] of 0.0015 µM. Moreover, in data set [1], the Time to peak tmax was 0.25 h, the AUC(0-inf) came to 8080 ng·h/mL, the half-life is 4.3 h and the MRT was determined as 2.1 h. Further, the Cmax in data set [1] was 4720 ng/mL. In data set [5], the LDLR expression level stood at 117%.
For the compound `O=S1(=O)CCCCN1c1ccc(N[C@H]2CC[C@H](Nc3ncc(OC(F)F)cn3)C2)nc1` [Example 92, 2-(6-(((1S,3S)-3-((5-(difluoromethoxy)pyrimidin-2-yl)amino)cyclopentyl)amino)pyridin-3-yl)-1,4-butanesulfolactam], the LDLR expression level in data set [5] was 105%. Besides, the IC50 in data set [2] was 16.3 µM.
In the same order, the values of `O=C1c2ccncc2CN1c1ccc(N[C@H]2CC[C@H](Nc3ncc(OC(F)F)cn3)C2)nc1` [Example 76, 2-(6-(((1S,3S)-3-((5-(difluoromethoxy)pyrimidin-2-yl)amino)cyclopentyl)amino)pyridin-3-yl)-2,3-dihydro-1H-pyrrolo[3,4-c]pyridin-1-one] are 156% and 12.1 µM.
In the same order, the values of `O=C1c2nc(C(F)(F)F)ccc2CN1c1ccc(N[C@H]2CC[C@H](Nc3ncc(C4CC4)nn3)C2)nc1` [Example 159, 6-(6-(((1S,3S)-3-((6-cyclopropyl-1,2,4-triazin-3-yl)amino)cyclopentyl)amino)pyridin-3-yl)-2-(trifluoromethyl)-5,6-dihydro-7H-pyrrolo[3,4-b]pyridin-7-one] are 105% and 5.9 µM.
As to `O=C1c2ncccc2CN1c1ccc(N[C@H]2CC[C@H](Nc3nc4cc(F)ccn4n3)C2)nc1` [Example 129, 6-(6-(((1S,3S)-3-((7-fluoro-[1,2,4]triazolo[1,5-a]pyridin-2-yl)amino)cyclopentyl)amino)pyridin-3-yl)-5,6-dihydro-7H-pyrrolo[3,4-b]pyridin-7-one], in data set [1], the Time to peak tmax worked out at 0.5 h, the AUC(0-inf) turned out to be 9640 ng·h/mL, the half-life was 3.9 h and the MRT came to 1.5 h. The Cmax in data set [1] is 4880 ng/mL. In addition, the IC50 in data set [2] was 7.4 µM. Further, the “LDL-C change, Day 14” value in data set [3] (5 mpk) is −21.98%.
Consider `O=C1c2ncccc2CN1c1ccc(N[C@H]2CC[C@H](Nc3ncc(OC(F)F)cn3)C2)nc1` [Example 57, 6-(6-(((1S,3S)-3-((5-(difluoromethoxy)pyrimidin-2-yl)amino)cyclopentyl)amino)pyridin-3-yl)-5,6-dihydro-7H-pyrrolo[3,4-b]pyridin-7-one], for which, in data set [1], the Time to peak tmax was found to be 1 h, the AUC(0-inf) came to 41500 ng·h/mL, the half-life was 5.9 h and the MRT was 4.8 h. Besides, the Cmax in data set [1] was 9960 ng/mL. Also, the IC50 in data set [2] amounted to 22 µM. Also, the “LDL-C change, Day 14” value in data set [3] (3 mpk) was −46.22%.
In turn, `O=c1ccccn1-c1ccc(N[C@H]2CC[C@H](Nc3ncc4cccn4n3)C2)nc1` [Example 20, 6′-(((1S,3S)-3-(pyrrolo[2,1-f][1,2,4]triazin-2-ylamino)cyclopentyl)amino)-2H-[1,3′-bipyridinyl]-2-one] returned a Kd in data set [4] of 0.0024 µM. The LDLR expression level in data set [5] is on record as 302%. In addition, in data set [2], the IC50 was 14 µM.
In turn, `O=c1c(-c2ccc(N[C@H]3CC[C@H](Nc4ncc(OC(F)F)cn4)C3)nc2)ccc2ccccn12` [Example 47] yielded an LDLR expression level in data set [5] of 859%. Moreover, the IC50 in data set [2] worked out at 18 µM.
For the compound `Cc1cc2c(cn1)CN(c1ccc(N[C@H]3CC[C@H](Nc4nc5cc(F)ccn5n4)C3)nc1)C2=O` [Example 147, 2-(6-(((1S,3S)-3-((7-fluoro-[1,2,4]triazolo[1,5-a]pyridin-2-yl)amino)cyclopentyl)amino)pyridin-3-yl)-6-methyl-2,3-dihydro-1H-pyrrolo[3,4-c]pyridin-1-one], in data set [1], the Time to peak tmax is 2 h, the AUC(0-inf) stood at 52000 ng·h/mL, the half-life was 4.4 h and the MRT was found to be 4.8 h. The Cmax in data set [1] was found to be 8230 ng/mL. Besides, in data set [2], the IC50 turned out to be 24.1 µM. Further, in data set [3] (3 mpk), the “LDL-C change, Day 14” value is listed as −23.20%.
Consider `O=C1c2cc(C(F)(F)F)ncc2CN1c1ccc(N[C@H]2CC[C@H](Nc3nc4cc(F)ccn4n3)C2)nc1` [Example 151, 2-(6-(((1S,3S)-3-((7-fluoro-[1,2,4]triazolo[1,5-a]pyridin-2-yl)amino)cyclopentyl)amino)pyridin-3-yl)-6-(trifluoromethyl)-2,3-dihydro-1H-pyrrolo[3,4-c]pyridin-1-one], for which, in data set [1], the Time to peak tmax was determined as 2 h, the AUC(0-inf) worked out at 97700 ng·h/mL, the half-life is 15.1 h and the MRT was 19 h. Also, the Cmax in data set [1] is 7420 ng/mL. For the same compound, the LDLR expression level in data set [5] is 138%. Moreover, the IC50 in data set [2] was determined as 1.3 µM.

Broadly, the MRT is the average time that molecules of a dose stay in the body. As usually defined, the IC50 is the concentration at which inhibition is half-maximal. What is called Kd is the equilibrium constant for the complex coming apart.

The values are drawn from patent US20250326722A1 (SHANGHAI HANSOH BIOMEDICAL CO., LTD., priority 2022, published 2025).
